# In article PMC10943337 (Heliyon, 2024):
# Molecular target: α-glucosidase (EC3.2.1.20)
# Assay: p-nitrophenyl-d-glucopyranoside hydrolysis, absorbance at […] nm, pH […] °C
# Format: biochemical, Saccharomyces cerevisiae
# Details: read-out: IC50 μM
compound,measurement,value
"COc1c(-c2ccc(O)c(O)c2)oc2c(O)c(O)ccc2c1=O [compound 1, 2-(3,4-dihydroxyphenyl)-7,8-dihydroxy-3-methoxy-4H-chromen-4-one]",IC50,45.9 ± 1.98 µM
